Test results: patent US9096593B2, “Compounds and methods for kinase modulation, and indications therefor” (Plexxikon Inc., priority 2009, dated 2015)
Like-named read-outs stand apart in the source and are kept apart here.

How the values were obtained:
c-Kit kinase = c-Kit kinase (Homo sapiens (Human), UniProt P10721); assay: c-Kit kinase biochemical activity assay (AlphaScreen, biotin-(E4Y)10 phosphorylation)
Procedure: In one assay the biochemical activity IC50 values are determined with respect to inhibition of c-Kit kinase activity, where inhibition of phosphorylation of a peptide substrate is measured as a function of compound concentration. Compounds to be tested are dissolved in DMSO to a concentration of 20 mM. These are diluted 30 μL into 120 μL of DMSO (4 mM) and 1 μL is added to an assay plate. These are then serially diluted […] (50 μL to 100 μL DMSO) for a total of 8 points. Plates are prepared such that each kinase reaction is 20 μL in 1× kinase buffer (25 mM HEPES, pH 7.5, 2 mM MgCl2, 2 mM MnCl2, 0.01% Tween-20, 1 mM DTT, 0.01% BSA), 5% DMSO and 100 μM ATP. Substrate is 30 nM biotin-(E4Y)10 (Millipore). C-kit kinase (obtained from Millipore (#14-559) or is prepared as described in U.S. Patent Application Publication Number 2009/0076046, the disclosure of which is hereby incorporated by reference as it relates to this assay) is at 0.75 ng per sample. After incubation of the kinase reaction for 1 hour at room temperature, 5 μL of donor beads (Streptavidin coated beads (Perkin Elmer Life Science) final concentration 10 μg/mL) in stop buffer (25 mM Hepes pH 7.5, 100 mM EDTA, 0.01% BSA) is added, the sample is mixed and incubated for 20 minutes at room temperature before adding 5 μL of acceptor beads (PY20 coated beads (Perkin Elmer Life Science) final concentration 10 μg/mL) in stop buffer. The samples are incubated for 60 minutes at room temperature and the signal per well is read on Envision reader. […] The signal vs. compound concentration is used to determine the IC50.

Fms kinase = Fms kinase (Homo sapiens (Human), UniProt P07333); assay: Fms kinase biochemical activity assay (AlphaScreen, biotin-(E4Y)10 phosphorylation)
Procedure, shortened: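 Recombinant human Fms phosphorylating 30 nM biotin-(E4Y)10 with 100 μM ATP (1 ng/well enzyme) in Hepes pH 7.5 buffer with Mg2+/Mn2+, 5% DMSO, 20 min at 30 °C. Phosphotyrosine detected by AlphaScreen streptavidin donor/PY20 acceptor beads; IC50 from signal versus compound concentration.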

CYP3A4(BFC) = CYP3A4(BFC) (Homo sapiens (Human), UniProt P08684); assay: CYP enzyme inhibition, fluorescent substrate
Procedure: (§1) CYP (Cytochrome P450) enzymes are the major drug metabolizing enzymes present in the liver. The inhibition of CYP enzyme activity (IC50) for each of CYP1A2, CYP2C19, CYP2C9, CYP2D6, CYP3A4(BFC) and CYP3A4(BQ) is determined for compounds, where inhibition of metabolism of a known substrate leads to a decrease in the fluorescence of the metabolized product. The fluorescence of the product is monitored as a function of compound concentration.
(§2) Compounds are dissolved in DMSO to a concentration of 100 mM. These are diluted 1 μL into 82 μL of acetonitrile. An 11 μL aliquot of this solution is then added to 204 μL of cofactor mix (1.3% NADPH Regeneration system Solution A, 1.04% NADPH Regeneration system Solution B from BD Biosciences, 5% acetonitrile and 0.05% DMSO). These are then serially diluted 1:1 (160 μL to 160 μL co-factor mix) for a total of 10 points. A 10 μL aliquot of this final mixture is dispensed into 384 well assay plates and incubated for 10 minutes at 37° C. Enzyme and substrate mix (10 μL; […] CYP1A2/5 μM CEC; 1.0 μmol CYP2C9/75 μM MFC; […] CYP2C19/25 μM CEC; 1.5 μmol CYP2D6/1.5 μM AMMC; 1.0 μmol CYP3A4/50 μM BFC; or 1.0 μmol CYP3A4/40 μM BQ) is added to these assay plates. Assay plates are incubated at 37° C. (CYP1A2-15 min; CYP2C9-45 min; CYP2C19, 2D6 and 3A4-30 min) and read in a Tecan Safire 2 plate reader (CYP1A2, 2C19 and 3A4 409 ex/460 em; CYP2C9 and 2D6409 ex/530 em). The signal versus compound concentration is used to determine the IC50. The enzymes and substrates for this assay are obtained from BD Biosciences.

CYP2C9 = CYP2C9 (Homo sapiens (Human), UniProt P11712); assay: CYP enzyme inhibition, fluorescent substrate
Procedure: as §1, §2

CYP2D6 = CYP2D6 (Homo sapiens (Human), UniProt P10635); assay: CYP enzyme inhibition, fluorescent substrate; conditions: read-out: Cyp IC50 (μM) 2D6
Procedure: as §1, §2

CYP1A2 = CYP1A2 (Homo sapiens (Human), UniProt P05177); assay: CYP enzyme inhibition, fluorescent substrate
Procedure: as §1, §2

CYP3A4(BQ) = CYP3A4(BQ) (Homo sapiens (Human), UniProt P08684); assay: CYP enzyme inhibition, fluorescent substrate
Procedure: as §1, §2

[1] = read-out: Biochemical activity (IC50 μM) Fms
[2] = 100 μM ATP, read-out: Biochemical (IC50 μM) Fms
[3] = read-out: Cyp IC50 (μM) 3A4(BFC), BFC substrate
[4] = human, CYP2C9 enzyme (BD Biosciences), 45 min
[5] = read-out: Cyp IC50 (μM) 3A4(BQ), BQ substrate

Sequence of c-Kit kinase (P10721 26-976): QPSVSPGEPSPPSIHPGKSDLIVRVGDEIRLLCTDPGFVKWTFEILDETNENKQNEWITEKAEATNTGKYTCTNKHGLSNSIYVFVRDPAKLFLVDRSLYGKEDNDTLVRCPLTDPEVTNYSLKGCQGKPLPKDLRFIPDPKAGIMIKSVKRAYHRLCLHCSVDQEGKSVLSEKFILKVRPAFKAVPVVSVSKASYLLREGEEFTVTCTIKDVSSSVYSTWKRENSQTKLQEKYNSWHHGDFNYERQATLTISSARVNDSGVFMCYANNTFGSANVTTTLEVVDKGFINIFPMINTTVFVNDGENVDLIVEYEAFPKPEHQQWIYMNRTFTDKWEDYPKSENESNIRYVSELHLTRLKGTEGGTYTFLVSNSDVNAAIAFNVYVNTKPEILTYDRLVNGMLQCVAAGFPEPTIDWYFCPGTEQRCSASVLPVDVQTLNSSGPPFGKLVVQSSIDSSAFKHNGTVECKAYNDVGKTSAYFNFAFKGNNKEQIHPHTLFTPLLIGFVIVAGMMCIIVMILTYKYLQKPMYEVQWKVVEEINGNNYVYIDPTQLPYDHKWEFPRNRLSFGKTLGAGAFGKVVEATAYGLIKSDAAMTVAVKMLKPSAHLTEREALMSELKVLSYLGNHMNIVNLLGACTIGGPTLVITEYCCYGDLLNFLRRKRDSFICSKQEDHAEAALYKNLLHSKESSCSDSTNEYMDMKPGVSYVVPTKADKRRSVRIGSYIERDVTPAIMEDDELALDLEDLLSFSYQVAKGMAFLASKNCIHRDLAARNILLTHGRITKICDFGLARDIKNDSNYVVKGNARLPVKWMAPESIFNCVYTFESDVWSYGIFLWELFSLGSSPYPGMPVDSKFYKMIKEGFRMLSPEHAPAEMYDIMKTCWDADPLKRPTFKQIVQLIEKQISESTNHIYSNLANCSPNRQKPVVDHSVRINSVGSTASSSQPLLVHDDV
Sequence of CYP2C9 (P11712 whole entry): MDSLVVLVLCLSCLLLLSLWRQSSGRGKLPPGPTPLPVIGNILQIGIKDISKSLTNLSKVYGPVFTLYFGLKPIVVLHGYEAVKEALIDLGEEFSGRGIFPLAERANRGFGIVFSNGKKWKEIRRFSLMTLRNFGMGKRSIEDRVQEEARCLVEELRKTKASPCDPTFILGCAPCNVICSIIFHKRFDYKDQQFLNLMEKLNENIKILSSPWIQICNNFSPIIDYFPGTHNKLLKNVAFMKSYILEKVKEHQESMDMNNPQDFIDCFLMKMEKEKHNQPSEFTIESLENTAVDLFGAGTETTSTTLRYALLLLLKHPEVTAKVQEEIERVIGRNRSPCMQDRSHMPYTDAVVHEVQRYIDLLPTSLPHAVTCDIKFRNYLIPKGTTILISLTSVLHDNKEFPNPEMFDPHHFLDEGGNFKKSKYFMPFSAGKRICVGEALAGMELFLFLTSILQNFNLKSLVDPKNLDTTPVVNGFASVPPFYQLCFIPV
Sequence of CYP1A2 (P05177 whole entry): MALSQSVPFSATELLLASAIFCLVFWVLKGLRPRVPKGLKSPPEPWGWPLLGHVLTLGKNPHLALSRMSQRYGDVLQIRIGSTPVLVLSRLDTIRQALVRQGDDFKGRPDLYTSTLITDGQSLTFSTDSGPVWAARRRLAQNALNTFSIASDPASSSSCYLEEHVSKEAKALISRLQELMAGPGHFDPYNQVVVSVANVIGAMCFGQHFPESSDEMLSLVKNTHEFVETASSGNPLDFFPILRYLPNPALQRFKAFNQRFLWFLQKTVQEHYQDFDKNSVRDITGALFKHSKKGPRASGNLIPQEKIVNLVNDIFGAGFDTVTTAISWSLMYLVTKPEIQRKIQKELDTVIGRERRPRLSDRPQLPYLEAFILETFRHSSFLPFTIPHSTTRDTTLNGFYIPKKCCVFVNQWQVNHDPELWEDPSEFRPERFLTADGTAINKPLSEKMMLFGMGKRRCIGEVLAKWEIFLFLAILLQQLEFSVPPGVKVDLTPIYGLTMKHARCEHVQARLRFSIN
Sequence of CYP2D6 (P10635 whole entry): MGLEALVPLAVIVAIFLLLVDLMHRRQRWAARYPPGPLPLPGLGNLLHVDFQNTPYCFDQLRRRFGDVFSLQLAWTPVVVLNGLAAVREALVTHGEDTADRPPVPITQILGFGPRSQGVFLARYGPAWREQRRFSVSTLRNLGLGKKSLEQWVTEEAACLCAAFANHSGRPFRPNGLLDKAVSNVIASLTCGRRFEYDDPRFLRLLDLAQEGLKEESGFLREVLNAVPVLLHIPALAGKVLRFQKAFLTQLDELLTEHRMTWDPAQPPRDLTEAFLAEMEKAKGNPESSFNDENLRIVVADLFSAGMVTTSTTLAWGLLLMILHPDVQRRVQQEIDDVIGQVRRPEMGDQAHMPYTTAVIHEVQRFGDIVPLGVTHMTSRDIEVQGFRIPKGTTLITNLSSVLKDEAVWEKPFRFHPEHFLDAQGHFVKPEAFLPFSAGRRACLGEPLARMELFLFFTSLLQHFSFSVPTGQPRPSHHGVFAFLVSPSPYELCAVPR
Sequence of CYP3A4(BFC) (P08684 whole entry): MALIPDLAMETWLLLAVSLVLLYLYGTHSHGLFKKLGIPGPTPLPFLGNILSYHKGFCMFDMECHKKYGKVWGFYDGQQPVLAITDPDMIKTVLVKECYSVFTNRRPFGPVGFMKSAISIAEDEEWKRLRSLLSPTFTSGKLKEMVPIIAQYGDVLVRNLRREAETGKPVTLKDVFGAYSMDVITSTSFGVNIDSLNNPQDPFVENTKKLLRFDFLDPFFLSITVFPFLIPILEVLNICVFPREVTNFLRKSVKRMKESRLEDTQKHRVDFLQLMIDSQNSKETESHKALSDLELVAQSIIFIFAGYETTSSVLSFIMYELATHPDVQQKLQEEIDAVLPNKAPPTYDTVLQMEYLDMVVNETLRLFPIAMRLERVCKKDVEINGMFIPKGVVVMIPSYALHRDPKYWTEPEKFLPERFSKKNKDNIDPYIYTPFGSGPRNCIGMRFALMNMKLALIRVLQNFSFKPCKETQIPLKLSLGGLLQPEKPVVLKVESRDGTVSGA
Sequence of CYP3A4(BQ) (P08684 whole entry): as above
Sequence of Fms kinase (P07333 20-972): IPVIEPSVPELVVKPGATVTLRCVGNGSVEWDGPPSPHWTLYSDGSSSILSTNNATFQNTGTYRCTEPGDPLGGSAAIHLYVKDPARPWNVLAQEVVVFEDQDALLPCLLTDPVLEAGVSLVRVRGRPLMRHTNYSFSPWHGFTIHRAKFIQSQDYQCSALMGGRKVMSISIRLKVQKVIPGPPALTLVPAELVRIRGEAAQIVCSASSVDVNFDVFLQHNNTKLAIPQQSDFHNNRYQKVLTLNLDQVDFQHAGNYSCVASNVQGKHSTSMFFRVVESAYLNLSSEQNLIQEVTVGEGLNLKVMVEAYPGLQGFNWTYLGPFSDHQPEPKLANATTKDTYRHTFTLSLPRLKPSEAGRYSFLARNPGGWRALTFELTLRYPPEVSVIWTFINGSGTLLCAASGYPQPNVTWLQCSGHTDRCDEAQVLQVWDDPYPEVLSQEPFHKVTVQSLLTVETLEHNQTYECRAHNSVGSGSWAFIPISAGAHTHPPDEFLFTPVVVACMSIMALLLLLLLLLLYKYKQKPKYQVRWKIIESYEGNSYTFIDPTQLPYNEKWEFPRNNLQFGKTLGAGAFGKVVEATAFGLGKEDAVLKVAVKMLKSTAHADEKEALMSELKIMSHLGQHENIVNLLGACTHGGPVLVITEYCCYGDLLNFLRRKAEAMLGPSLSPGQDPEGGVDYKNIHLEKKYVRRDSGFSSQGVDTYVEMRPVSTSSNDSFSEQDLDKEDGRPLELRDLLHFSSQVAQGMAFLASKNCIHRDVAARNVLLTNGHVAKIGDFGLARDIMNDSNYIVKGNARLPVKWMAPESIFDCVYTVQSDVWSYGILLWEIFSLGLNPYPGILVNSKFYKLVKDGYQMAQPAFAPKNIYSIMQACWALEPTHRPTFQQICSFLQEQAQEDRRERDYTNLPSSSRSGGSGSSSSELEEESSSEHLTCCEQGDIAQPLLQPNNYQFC

SMILES	IC50 (c-Kit kinase) [µM]	Biochemical activity selectivity (Kit IC50/Fms IC50) (Fms kinase)	IC50 (Fms kinase; [1]) [µM]	other results
Fc1cncc(CNc2ncc(Cc3c[nH]c4ncc(Cl)cc34)cn2)c1 [Compound P-2176, [5-(5-Chloro-1H-pyrrolo[2,3-b]pyridin-3-ylmethyl)-pyrimidin-2-yl]-(5-fluoro-pyridin-3-ylmethyl)-amine]	> 0.1	>20	< 0.1	
Fc1nc(NCc2ccc(Cl)cn2)ccc1Cc1c[nH]c2ncccc12 [Compound P-2044, (5-Chloro-pyridin-2-ylmethyl)-[6-fluoro-5-(1H-pyrrolo[2,3-b]pyridin-3-ylmethyl)-pyridin-2-yl]-amine]				IC50 (Fms kinase; [2]): < 0.1 µM
COc1ccc(CNc2ccc(Cc3c[nH]c4ncc(F)cc34)c(F)n2)cn1 [Compound P-1622, [6-Fluoro-5-(5-fluoro-1H-pyrrolo[2,3-b]pyridin-3-ylmethyl)-pyridin-2-yl]-(6-methoxy-pyridin-3-ylmethyl)-amine]	> 0.1	>20	< 0.1	IC50 (CYP3A4(BFC)): 5 to 10 µM; IC50 (CYP2C9): 5 to 10 µM; IC50 (CYP2D6): > 10 µM; IC50 (CYP1A2; human, 15 min): > 10 µM; IC50 (CYP3A4(BQ)): 5 to 10 µM
Cc1cnc2[nH]cc(Cc3cnc(NCc4ccc(Cl)nc4)nc3)c2c1 [Compound P-2078, (6-Chloro-pyridin-3-ylmethyl)-[5-(5-methyl-1H-pyrrolo[2,3-b]pyridin-3-ylmethyl)-pyrimidin-2-yl]-amine]	> 0.1	>20	< 0.1	IC50 (CYP2C9; human, 45 min): < 5 µM; IC50 (CYP1A2; human, CYP1A2 enzyme (BD Biosciences), 15 min): > 10 µM
COc1cnc2[nH]cc(Cc3ccc(NCc4ccccc4Cl)nc3F)c2c1 [Compound P-2034, (2-chloro-benzyl)-[6-fluoro-5-(5-methoxy-1H-pyrrolo[2,3-b]pyridin-3-ylmethyl)-pyridin-2-yl]-amine]				IC50 (Fms kinase; [2]): < 0.1 µM
CCS(=O)(=O)Nc1cc(F)cc(CNc2ccc(Cc3c[nH]c4ncc(C)cc34)c(F)n2)c1 [Compound P-2202, Ethanesulfonic acid (3-fluoro-5-{[6-fluoro-5-(5-methyl-1H-pyrrolo[2,3-b]pyridin-3-ylmethyl)-pyridin-2-ylamino]-methyl}-phenyl)-amide]	> 0.1	<20	< 0.1	
Cc1cnc2[nH]cc(Cc3cnc(NCc4cccnc4OC4CCCC4)nc3)c2c1 [Compound P-2148, (2-Cyclopentyloxy-pyridin-3-ylmethyl)-[5-(5-methyl-1H-pyrrolo[2,3-b]pyridin-3-ylmethyl)-pyrimidin-2-yl]-amine]	> 0.1	<20	< 0.1	
CS(=O)(=O)Nc1cnc2[nH]cc(Cc3ccc(NCc4ccc(Cl)nc4)nc3F)c2c1 [Compound P-1679, N-(3-{6-[(6-Chloro-pyridin-3-ylmethyl)-amino]-2-fluoro-pyridin-3-ylmethyl}-1H-pyrrolo[2,3-b]pyridin-5-yl)-methanesulfonamide]	> 0.1	>20	< 0.1	IC50 (CYP3A4(BFC); [3]): > 10 µM; IC50 (CYP2C9; [4]): < 5 µM; IC50 (CYP2D6): > 10 µM; IC50 (CYP1A2; human, 15 min): > 10 µM
COc1cnc2[nH]cc(Cc3ccc(NCc4ccc(Cl)cc4)nc3F)c2c1 [Compound P-2032, (4-Chloro-benzyl)-[6-fluoro-5-(5-methoxy-1H-pyrrolo[2,3-b]pyridin-3-ylmethyl)-pyridin-2-yl]-amine]	< 0.1	<20	< 0.1	IC50 (Fms kinase; [2]): < 0.1 µM; IC50 (CYP3A4(BFC); [3]): > 10 µM; IC50 (CYP2C9; [4]): < 5 µM; IC50 (CYP2D6): > 10 µM; IC50 (CYP1A2): 5 to 10 µM; IC50 (CYP3A4(BQ); [5]): > 10 µM
COc1ncc(F)cc1CNc1ncc(Cc2c[nH]c3ncc(Cl)cc23)cn1 [Compound P-2064, [5-(5-Chloro-1H-pyrrolo[2,3-b]pyridin-3-ylmethyl)-pyrimidin-2-yl]-(5-fluoro-2-methoxy-pyridin-3-ylmethyl)-amine]	> 0.1	>20	< 0.1	IC50 (CYP3A4(BFC); [3]): > 10 µM; IC50 (CYP2C9): 5 to 10 µM; IC50 (CYP2D6): > 10 µM; IC50 (CYP1A2; human, 15 min): > 10 µM; IC50 (CYP3A4(BQ); [5]): > 10 µM
COc1cnc2[nH]cc(Cc3ccc(NCc4cccnc4OC)nc3F)c2c1 [Compound P-2043, [6-Fluoro-5-(5-methoxy-1H-pyrrolo[2,3-b]pyridin-3-ylmethyl)-pyridin-2-yl]-(2-methoxy-pyridin-3-ylmethyl)-amine]		>20		IC50 (CYP3A4(BFC); [3]): > 10 µM; IC50 (CYP2C9): 5 to 10 µM; IC50 (CYP1A2; human, 15 min): > 10 µM; IC50 (CYP3A4(BQ)): 5 to 10 µM
Cc1cnc2[nH]cc(Cc3ccc(NCc4cnccc4C(F)(F)F)nc3)c2c1 [Compound P-2070, [5-(5-Methyl-1H-pyrrolo[2,3-b]pyridin-3-ylmethyl)-pyridin-2-yl]-(4-trifluoromethyl-pyridin-3-ylmethyl)-amine]	< 0.1	<20	< 0.1	
Cc1cccc(CNc2ncc(Cc3c[nH]c4ncc(Cl)cc34)cn2)c1 [Compound P-2013, [5-(5-Chloro-1H-pyrrolo[2,3-b]pyridin-3-ylmethyl)-pyrimidin-2-yl]-(3-methyl-benzyl)-amine]	< 0.1	<20	< 0.1	
COc1ccc(CNc2ncc(Cc3c[nH]c4ncc(Cl)cc34)s2)cn1 [Compound P-2154, [5-(5-Chloro-1H-pyrrolo[2,3-b]pyridin-3-ylmethyl)-thiazol-2-yl]-(6-methoxy-pyridin-3-ylmethyl)-amine]	< 0.1	<20	< 0.1	
Fc1ccc(CNc2ncc(Cc3c[nH]c4ncc(Cl)cc34)cn2)cc1F [Compound P-2008, [5-(5-Chloro-1H-pyrrolo[2,3-b]pyridin-3-ylmethyl)-pyrimidin-2-yl]-(3,4-difluoro-benzyl)-amine]	< 0.1	<20	< 0.1	
COc1cccc(CNc2ncc(Cc3c[nH]c4ncc(Cl)cc34)s2)n1 [Compound P-2163, [5-(5-Chloro-1H-pyrrolo[2,3-b]pyridin-3-ylmethyl)-thiazol-2-yl]-(6-methoxy-pyridin-2-ylmethyl)-amine]	> 0.1	<20	< 0.1	
COc1ccc(CNc2ncc(Cc3c[nH]c4ncc(C)cc34)cc2C)cn1 [Compound P-1554, (6-Methoxy-pyridin-3-ylmethyl)-[3-methyl-5-(5-methyl-1H-pyrrolo[2,3-b]pyridin-3-ylmethyl)-pyridin-2-yl]-amine]	< 0.1	<20	< 0.1	
